Test results: PMC12047801, “Disrupting the OTUD4-USP7 deubiquitinase complex to suppress herpesvirus replication: a novel antiviral strategy” (PLOS Pathogens, 2025)
Several values for one entry are separate records, joined by “and”; a condition that tells them apart may be missing. Equal values may be shown once. Entries after “also recorded” stand apart in the source; their conditions may differ. Read-outs that look alike come from different tables or passages of the source.

Columns and labels:
MHV68 in NIH3T3 cells = assay type: cell-based
[1] = tested on: interaction between USP7 and ICP0; assay type: cell-based
[2] = tested on: interaction between murine USP7-TRAF and murine OTUD4; assay type: binding; settings: GST pull-down
[3] = tested on: interaction between USP7 and p53; assay type: cell-based
USP7-TRAF domain = biological target: T1, USP7-TRAF domain (Homo sapiens, UniProt Q93009); test: Surface plasmon resonance (SPR) analysis of peptide binding to USP7-TRAF
T1 construct: The TRAF domain of human and murine USP7 (1-208 aa) was subcloned into pGEX-6p-1; GST (N); made in house; host or cells: E. coli BL21 (DE3)

[4] = tested on: KSHV lytic gene expression in SLK.iBAC-GFP cells; assay type: cell-based
[5] = tested on: KSHV latent gene transcription in BCBL-1 cells; assay type: cell-based
RTA in HEK293T cells = assay type: cell-based, KSHV
[6] = tested on: KSHV lytic reactivation in OTUD4- or USP7-knockdown SLK.iBAC-GFP cells; assay type: cell-based
[7] = tested on: KSHV lytic reactivation in SLK.iBAC-GFP cells; assay type: cell-based
Protocol: (A) Graphical illustration showing the rationale underlying our peptide design. (B) Surface Plasmon Resonance (SPR) analysis assessing the interaction of the USP7-TRAF domain with the designed peptides p2 and p8. (C) SLK.iBAC-GFP cells were induced with doxycycline (Dox, 1 μg/mL) and sodium butyrate (0.5 mM) in the presence of the Tat fusion peptides (100 μM). All the peptides were fused to an N-terminal Tat47-57 peptide ([…]) via a flexible GG linker. The supernatants containing infectious virions were collected 48 h post-induction and used to infect HEK293T cells. KSHV infectious units were calculated based on the percentage of GFP-positive cells determined by flow cytometry. Data are mean ± s.d. of N = 3 independent biological replicates. (D) SLK.iBAC-GFP cells were induced with doxycycline (Dox, 1 μg/mL) and sodium butyrate (0.5 mM) in the presence of increasing amount of p8 (0, 10, 50, 100 μM). KSHV infectious units were determined 48 h post-induction. Data are mean ± s.d. of N = 3 independent biological replicates. […] Data are mean ± s.d. of N = 3 independent biological replicates. […] Cell viability was assessed by measuring ATP levels 48 h post-induction. Data are mean ± s.d. of N = 3 independent biological replicates.
Peptides p1 to p12 (S1A Fig) were synthesized by Sangon Biotech (Shanghai, China) with 95% purity. The Tat-fused peptides in Fig 1C consisted of the corresponding peptides conjugated to the Tat47-57 peptide ([…]) and two glycine linker residues (QYAOBIO, Suzhou, China). The peptides p8-DRI (nssqsasqnvpprrrqrrkkrGy) and p2-DRI (iesndedavepprrrqrrkkrGy) were synthesized using D-amino acids in a retro-reversed sequence with 95% purity (QYAOBIO, Suzhou, China). The peptide p8-m ([…]) was synthesized with 95% purity (QYAOBIO, Suzhou, China). All the peptides were acetylated at the N-terminus and amidated at the C-terminus to mimic the native peptide structure. The peptides were dissolved in PBS to prepare 1 mM stock solutions for in vitro experiments and 5 mg/ml stock solutions for in vivo experiments.
SLK.iBAC-GFP cells were treated with Dox (1 μg/ml) and sodium butyrate (0.5 mM) to induce lytic reactivation in the presence of indicated peptides (100 μM). The supernatants were collected at the specified time points and used to infect HEK293T cells at appropriate dilutions. The infected cells were collected, fixed, and analyzed by flow cytometry 24 h post-infection. FlowJo 10.0 software was used to analyze the data, and KSHV infectious units were quantified based on the percentage of GFP-positive cells.

RTA in iSLK cells = assay type: cell-based, KSHV
[8] = tested on: KSHV-RTA-WT lytic reactivation; assay type: cell-based
[9] = tested on: KSHV lytic gene expression in BCBL-1-Tet-K-RTA cells; assay type: cell-based
[10] = tested on: KSHV viral proteins in BCBL-1-Tet-K-RTA cells; assay type: cell-based; settings: 100 μM
[11] = tested on: interaction between OTUD4 and USP7-TRAF; test: GST pull-down competition assay, human USP7-TRAF and FLAG-OTUD4; assay type: binding; settings: 100 μM, 4 h
[12] = tested on: KSHV lytic replication in BCBL-1-Tet-K-RTA cells; assay type: cell-based
MHV68 in MLF cells = assay type: cell-based
[13] = tested on: interaction between USP7 and MDM2; assay type: cell-based
[14] = tested on: KSHV genome replication in BCBL-1 cells; test: Relative viral genomic copy number (latency) by qPCR in BCBL-1 cells; assay type: cell-based; settings: 100 μM, 48 h
SLK.iBAC-GFP cells = assay type: cell-based; settings: Fig. 1F, 100 μM, 48 h
Protocol: SLK.iBAC-GFP cells were seeded in a 96-well plate at a density of 1 × 10^5 cells/well. The cells were then treated with doxycycline (Dox, 1 μg/ml) and sodium butyrate (0.5 mM) to induce lytic reactivation in the presence of the indicated peptides (100 μM) for 48 h. After treatment and a 30-min equilibration at room temperature, CellTiter-Glo Reagent (Promega, G7570) was added in equal volumes to culture medium. Plates underwent orbital shaking (2 min) for lysis, followed by a 10-min incubation for signal stabilization and luminescence recording (0.25-1 sec integration).

[15] = tested on: KSHV lytic replication in SLK.iBAC-GFP cells transduced with vector control or OTUD4; assay type: cell-based; design: KSHV infectious units: unit not given here
[16] = tested on: OTUD4-USP7 interaction in FLAG-OTUD4-expressing SLK.iBAC-GFP cells; assay type: cell-based

T1 sequence (Q93009 1-208): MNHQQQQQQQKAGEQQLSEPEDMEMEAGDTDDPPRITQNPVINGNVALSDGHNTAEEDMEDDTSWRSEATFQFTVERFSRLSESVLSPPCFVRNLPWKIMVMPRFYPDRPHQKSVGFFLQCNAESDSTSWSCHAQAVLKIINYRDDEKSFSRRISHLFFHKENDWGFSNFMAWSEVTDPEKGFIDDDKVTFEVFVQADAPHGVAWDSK

Q: Which results are given for Ac-YGRKKRRQRRRGGVNQSASQSSN-NH2 [p8]?
A: Antiviral activity against MHV68 in NIH3T3 cells (in words) (MHV68 in NIH3T3 cells): potent antiviral activity against MHV68; ORF9 viral gene expression (MHV68 in NIH3T3 cells): 0.25 and 0.26; ORF25 viral gene expression (MHV68 in NIH3T3 cells): 0.28 and 0.26; ORF50 viral gene expression (MHV68 in NIH3T3 cells): 0.24 and 0.22 and 0.27; Effect on USP7-ICP0 interaction (in words) [1]: did not affect the interactions; Relative inhibitory activity on murine USP7-TRAF/murine OTUD4 interaction, p8 vs p8-m (in words) ([2]; 100 μM (S5E Fig)): slightly stronger inhibitory activity; Disruption of murine USP7-TRAF/murine OTUD4 interaction (in words) ([2]; 100 μM, 4 h (S5E Fig)): effectively disrupted the interaction; Effect on USP7-p53 interaction (in words) [3]: did not affect the interactions; Binding to the USP7-TRAF domain (in words) (USP7-TRAF domain): specifically bound to the USP7-TRAF domain; ORF25 gene expression [4]: 0.63 and 0.71 and 0.72; ORF26 gene expression [4]: 0.64 and 0.65 and 0.71; ORF50 gene expression [4]: 0.69 and 0.8; ORF56 gene expression [4]: 0.84 and 0.81 and 0.83; ORF57 gene expression [4]: 0.74 and 0.75; Transcription levels of ORF50, ORF56, ORF57, ORF25, ORF26 (in words) [4]: decreased the transcription levels of multiple viral genes; ORF71 mRNA expression [5]: 1.01 and 1.03; ORF72 mRNA expression [5]: 1.27 and 1.18 and 1.09; ORF73 mRNA expression [5]: 0.87 and 0.86 and 0.96; KSHV latent gene transcription (in words) ([5]; 100 μM, 48 h): did not affect KSHV latent gene transcription; Effect on OTUD4-enhanced RTA protein level (in words) (RTA in HEK293T cells): countered the promoting effect; Antiviral effect in OTUD4-deficient or USP7-deficient cells (in words) [6]: abolished; KSHV progeny virion production (in words) ([7]; S2E Fig, 100 μM): significantly reduced KSHV progeny virion production; Inhibition of KSHV lytic reactivation (in words) ([7]; Tat-fused peptides, 100 μM or dose series, 48 h post-induction): effectively inhibited KSHV lytic reactivation in a dose-dependent manner; also recorded: efficiently suppressed KSHV lytic reactivation; RTA protein level in iSLK cells (in words) (RTA in iSLK cells): reduced the protein level of RTA; KSHV infectious units [8]: 1.8648 and 1.9224 and 1.6488; ORF25 gene expression [9]: 0.73 and 0.71; ORF26 gene expression [9]: 0.38 and 0.45 and 0.4; ORF50 gene expression [9]: 0.4 and 0.44 and 0.49; ORF56 gene expression [9]: 0.63 and 0.69 and 0.67; ORF57 gene expression [9]: 0.5 and 0.43 and 0.54; Transcription of KSHV lytic genes (in words) ([9]; 100 μM): decreased transcription of KSHV lytic genes; Viral protein levels (in words) [10]: lower levels of viral proteins; Disruption of OTUD4/USP7-TRAF interaction (in words) [11]: effectively blocked the interaction between OTUD4 and USP7-TRAF; KSHV genome copies in supernatants [12]: 1.3 and 1.45 and 1.47; Progeny viral genomic copy number (in words) ([12]; 100 μM, 48 h): reduced progeny viral genomic copy number; Antiviral activity against MHV68 in MLF cells (in words) (MHV68 in MLF cells): potent antiviral activity against MHV68; ORF9 viral gene expression (MHV68 in MLF cells): 0.54 and 0.47 and 0.53; ORF25 viral gene expression (MHV68 in MLF cells): 0.37 and 0.47 and 0.44; ORF50 viral gene expression (MHV68 in MLF cells): 0.77 and 0.82 and 0.65; Effect on USP7-MDM2 interaction (in words) [13]: did not affect the interactions; KSHV genome replication in latency (in words) [14]: did not affect KSHV latent gene transcription or genome replication; Cytotoxicity (in words) (SLK.iBAC-GFP cells): minimal cytotoxicity; Cell viability (ATP levels) (SLK.iBAC-GFP cells; replicate 1): 91.6982; Cell viability (ATP levels) (SLK.iBAC-GFP cells; replicate 2): 88.8817; Cell viability (ATP levels) (SLK.iBAC-GFP cells; replicate 3): 95.2836; Effect on OTUD4-promoted KSHV lytic replication (in words) [15]: negated by p8; KSHV infectious units [15]: 6.7 and 4.8 and 4.4 and 5.5 and 6.5 and 6.3; Co-localization of OTUD4 and USP7 (in words) [16]: disrupted the co-localization of OTUD4 and USP7
